Blank lines part the entries; values can stand above or below the compound they belong to.
Experiments:
Format in all cases: cell-based
[1] = tested on: Human endothelial cells (EA.hy 926); experiment: Inhibition of FBS stimulated endothelial cell proliferation (MTT)
Description: Cell line: Human endothelial cells (EA.hy 926); test item: IS 181: treatment regimen: multiple additions (3)-72 hours; concentration range: 1 6 g/ml to 5000 6 g/ml (triplicate wells); sera condition: medium containing 10% FBS. […] The cells were then subjected to complete serum starvation. The cells were retreated with 10% FBS to stimulate cellular proliferation. […] Inhibition of FBS stimulated cell proliferation was measured using MTT assay. End point: percentage inhibition of FBS stimulated cell proliferation. Positive controls: anthralin; paclitaxel.

[2] = tested on: Human endothelial cells (EA.hy 926); experiment: Inhibition of endothelial cell migration (wound); settings: Homo sapiens, EA.hy 926; EA.hy926, 14 h, 10 nM; read-out: % Inhibition of migration with respect to respective 0 h control
Description: Cell line: Human endothelial cells (EA.hy 926); test item: IS 181; treatment regimen: single addition; concentration range: 0.1 μg/ml-1 mg/ml; sera condition: medium containing 10% FBS. […] The cells were then subjected to serum starved with medium containing 1% FBS for 24 hours. 24 hours post serum starvation, the wounds (straight line) were created in the middle of the well using a sterile 200 μl pipette tip. Cells were washed twice using DMEM followed by treatment with different concentrations of IS 181 in DMEM containing 10% FBS. Images of wound were taken at 0 h and 14 h at three points in single well and distance of wound closure was measured using Image J software. End point: image analysis of cell migration of different concentrations of IS 181 treated cells at 0 hour and after 14 hours of treatment. Percentage inhibition in cell migration of different concentrations of IS 181 treated cells were calculated after 14 h of treatment with respect to respective 0 hours (FIG. 13). […] (FIGS. 14A-14B).

[3] = tested on: HaCaT (Human keratinocyte); experiment: LDH enzyme release assay
Description: (§1) For testing Apoptosis the Human Keratinocytes (HaCaT) cell line has been employed. The growth conditions are DMEM containing 1% FBS. […] Test concentration range is IS181 is tested at the highest (Qualitative analysis) effective concentrations selected on the basis of Quantitative JC-1 assay. The method of estimation is Mitochondrial membrane depolarization by JC-1 assay (Early apoptosis), LDH enzyme release (Necrosis). Treatment regimen & time points are JC-1 assay—Single addition, 20 h; LDH assay—Single addition, 24 h; Positive control: Triton-X-100, Doxorubicin-hydrochloride
End-point: Percentage increase in LDH activity in treated cells with respect to untreated.

[4] = tested on: Human PBMCs; experiment: Cell viability (MTT assay) in PBMCs
Description: (§2) Cell Lines/Cells: Human Keratinocytes (HaCaT); Human melanoma (SK-MEL-28); Human PBMCs. Test Item: IS181 Treatment regimen: Single addition—24 h, ^#Multiple additions (3)−72 h; Concentration range: 1 ng/ml-2 mg/ml (triplicate wells); Sera Condition: […] Method of estimation: MTT assay. […] Positive control: Triton-X-100, Doxorubicin Hydrochloride.

[5] = tested on: Human melanoma (SK-MEL-28); experiment: Cell viability (MTT assay) in SK-MEL-28
Description: as §2

[6] = tested on: HaCaT (Human keratinocyte) cell line; experiment: Mitochondrial membrane potential by JC-1 assay
Description: as §1
Quantitative effect on Δψm (Red fluorescence/Green fluorescence) in HaCaT cells post 20 hours of treatment. […] Evaluation (Qualitative and quantitative) of differential JC-1 staining in treated cells after 20 h on incubation with the test peptides.

Compound: CC(=O)O[C@H]1C(=O)[C@@]2(C)[C@H]([C@H](OC(=O)c3ccccc3)[C@]3(O)C[C@H](OC(=O)[C@H](O)[C@@H](NC(=O)c4ccccc4)c4ccccc4)C(C)=C1C3(C)C)[C@]1(OC(C)=O)CO[C@@H]1C[C@@H]2O [Paclitaxel]
Absorbance (Mean ± SD) at 540 nm ([1]; EA.hy926, 10 nM): 0.36 ± 0.012
Absorbance (Mean ± SD) at 540 nm ([1]; EA.hy926, 50 nM): 0.23 ± 0.008
Absorbance (Mean ± SD) at 540 nm ([1]; EA.hy926, 100 nM): 0.19 ± 0.006
Absorbance (Mean ± SD) at 540 nm ([1]; EA.hy926, 500 nM): 0.16 ± 0.003
Absorbance (Mean ± SD) at 540 nm ([1]; EA.hy926, 1000 nM): 0.06 ± 0.001
inhibition at 0.01 µM ([1]; Homo sapiens, EA.hy 926, EA.hy926, 10 nM, read-out: ¾ Inhibition of FBS stimulated cell growth): 27.6%
inhibition at 0.05 µM ([1]; Homo sapiens, EA.hy 926, EA.hy926, 50 nM, read-out: ¾ Inhibition of FBS stimulated cell growth): 58.9%
inhibition at 0.1 µM ([1]; Homo sapiens, EA.hy 926, EA.hy926, 100 nM, read-out: ¾ Inhibition of FBS stimulated cell growth): 62.7%
inhibition at 0.5 µM ([1]; Homo sapiens, EA.hy 926, EA.hy926, 500 nM, read-out: ¾ Inhibition of FBS stimulated cell growth): 70.1%
inhibition at 1 µM ([1]; Homo sapiens, EA.hy 926, EA.hy926, 1000 nM, read-out: ¾ Inhibition of FBS stimulated cell growth): 89.4%
inhibition at 0.01 µM [2]: 71%

% Increase with respect to untreated (LDH) ([3]; 0.01%): −30.27%
LDH Activity (mU/ml) ([3]; 0.01%): 44.11 mU/ml
% Increase with respect to untreated (LDH) ([3]; 0.1%): ***95.84%
LDH Activity (mU/ml) ([3]; 0.1%): 123.88 mU/ml
Compound: Triton X-100 [reference compound]
cytotoxicity [4]: 70% to 77%
cytotoxicity [5]: > 90%
Green fluorescence intensity (RFU) ([6]; 0.01%): 20.5 ± 17.68 RFU
Red fluorescence intensity (RFU) ([6]; 0.01%): 33.25 ± 32.17 RFU
Red fluorescence intensity/Green fluorescence intensity ([6]; 0.01%): *1.62
Green fluorescence intensity (RFU) ([6]; 0.1%): 22.33 RFU
Red fluorescence intensity (RFU) ([6]; 0.1%): 16.33 RFU
Red fluorescence intensity/Green fluorescence intensity ([6]; 0.1%): *0.73
